Measurements from patent US10004701B2, “Methods and compositions for treating infection” (UNIVERSITY OF ROCHESTER, priority 2012, dated 2018).
Counter-ions that a name gives are not always drawn. Like-named read-outs stand apart in the source and are kept apart here.

What was measured:
Test in all cases: AK assay 384-well format, Prestwick library screening
E. faecium = format: cell-based, Enterococcus faecium; conditions: 50 μM final drug concentration; for fold induction at 50 µM: Enterococcus faecium, 3 h; for AK-based Prestwick Library Screening Results: E. faecium (increase in extracellular AK activity): 384-well
K. pneumoniae = format: cell-based, Klebsiella pneumoniae; conditions: 50 μM final drug concentration; for fold induction at 50 µM: Klebsiella pneumoniae, 3 h; for AK-based Prestwick Library Screening Results: K. pneumoniae (increase in extracellular AK activity): 384-well
[1] = system: S. aureus strain USA300-0114; format: cell-based, Staphylococcus aureus; conditions: 50 μM final drug concentration; for fold induction at 50 µM: Staphylococcus aureus, USA300, 3 h; for AK-based Prestwick Library Screening Results: S. aureus (increase in extracellular AK activity): 384-well
E. coli = format: cell-based, Escherichia coli; conditions: 50 μM final drug concentration; for fold induction at 50 µM: Escherichia coli, 3 h; for AK-based Prestwick Library Screening Results: E. coli (increase in extracellular AK activity): 384-well
P. aeruginosa = format: cell-based, Pseudomonas aeruginosa; conditions: 50 μM final drug concentration; for fold induction at 50 µM: Pseudomonas aeruginosa, 3 h; for AK-based Prestwick Library Screening Results: P. aeruginosa (increase in extracellular AK activity): 384-well
E. cloacae = format: cell-based, Enterobacter cloacae; conditions: 50 μM final drug concentration; for fold induction at 50 µM: Enterobacter cloacae, 3 h; for AK-based Prestwick Library Screening Results: E. cloacae (increase in extracellular AK activity): 384-well
[2] = system: A. baumannii strain 98-37-09; format: cell-based, Acinetobacter baumannii; conditions: 50 μM final drug concentration; for fold induction at 50 µM: Acinetobacter baumannii, 983709, 3 h; for AK-based Prestwick Library Screening Results: A. baumannii (increase in extracellular AK activity): 384-well
[3] = cutoff for positive-scoring molecules 3-fold increase, read-out: AK-based Prestwick Library Screening Results, E. faecium (fold increase in extracellular AK activity)
[4] = cutoff for positive-scoring molecules 3-fold increase, read-out: AK-based Prestwick Library Screening Results, K. pneumoniae (fold increase in extracellular AK activity)
[5] = cutoff for positive-scoring molecules 3-fold increase, read-out: AK-based Prestwick Library Screening Results, S. aureus (fold increase in extracellular AK activity)
[6] = cutoff for positive-scoring molecules 3-fold increase, read-out: AK-based Prestwick Library Screening Results, E. coli (fold increase in extracellular AK activity)
[7] = cutoff for positive-scoring molecules 3-fold increase, read-out: AK-based Prestwick Library Screening Results, P. aeruginosa (fold increase in extracellular AK activity)
[8] = cutoff for positive-scoring molecules 3-fold increase, read-out: AK-based Prestwick Library Screening Results, E. cloacae (fold increase in extracellular AK activity)
[9] = cutoff for positive-scoring molecules 3-fold increase, read-out: AK-based Prestwick Library Screening Results, A. baumannii (fold increase in extracellular AK activity)
[10] = planktonic E. faecium, […], read-out: AK-based Prestwick library screening result, E. faecium (fold increase in extracellular AK activity)
[11] = planktonic K. pneumoniae, […], read-out: AK-based Prestwick library screening result, K. pneumoniae (fold increase in extracellular AK activity)
[12] = planktonic S. aureus, […], read-out: AK-based Prestwick library screening result, S. aureus (fold increase in extracellular AK activity)
[13] = planktonic E. coli, […], read-out: AK-based Prestwick library screening result, E. coli (fold increase in extracellular AK activity)
[14] = planktonic P. aeruginosa, […], read-out: AK-based Prestwick library screening result, P. aeruginosa (fold increase in extracellular AK activity)
[15] = planktonic E. cloacae, […], read-out: AK-based Prestwick library screening result, E. cloacae (fold increase in extracellular AK activity)
[16] = planktonic A. baumannii, […], read-out: AK-based Prestwick library screening result, A. baumannii (fold increase in extracellular AK activity)

## CC(=O)OCC(=O)NCCCOc1cccc(CN2CCCCC2)c1 [Roxatidine Acetate HCl]
E. faecium; planktonic E. faecium, cutoff for positive-scoring molecules 3-fold increase, read-out: AK-based Prestwick Library Screening Results, E. faecium (increase in extracellular AK activity)
  fold induction at 50 µM: 1
K. pneumoniae; planktonic K. pneumoniae, cutoff for positive-scoring molecules 3-fold increase, read-out: AK-based Prestwick Library Screening Results, K. pneumoniae (increase in extracellular AK activity)
  fold induction at 50 µM: 0.7
[1]; planktonic S. aureus, cutoff for positive-scoring molecules 3-fold increase, read-out: AK-based Prestwick Library Screening Results, S. aureus (increase in extracellular AK activity)
  fold induction at 50 µM: 0.6
E. coli; planktonic E. coli, cutoff for positive-scoring molecules 3-fold increase, read-out: AK-based Prestwick Library Screening Results, E. coli (increase in extracellular AK activity)
  fold induction at 50 µM: 0.8
P. aeruginosa; planktonic P. aeruginosa, cutoff for positive-scoring molecules 3-fold increase, read-out: AK-based Prestwick Library Screening Results, P. aeruginosa (increase in extracellular AK activity)
  fold induction at 50 µM: 0.7
E. cloacae; planktonic E. cloacae, cutoff for positive-scoring molecules 3-fold increase, read-out: AK-based Prestwick Library Screening Results, E. cloacae (increase in extracellular AK activity)
  fold induction at 50 µM: 0.9
[2]; planktonic A. baumannii, cutoff for positive-scoring molecules 3-fold increase, read-out: AK-based Prestwick Library Screening Results, A. baumannii (increase in extracellular AK activity)
  fold induction at 50 µM: 0.8

## CC[C@H]1OC(=O)[C@H](C)[C@@H](O[C@H]2C[C@@](C)(OC)[C@@H](O)[C@H](C)O2)[C@H](C)[C@@H](O[C@@H]2O[C@H](C)C[C@H](N(C)C)[C@H]2O)[C@](C)(O)C[C@@H](C)/C(=N\OCOCCOC)[C@H](C)[C@@H](O)[C@]1(C)O [Roxithromycin]
E. faecium; [3]
  fold induction at 50 µM: 1.4
K. pneumoniae; [4]
  fold induction at 50 µM: 1.1
[1]; [5]
  fold induction at 50 µM: 2.8
E. coli; [6]
  fold induction at 50 µM: 0.9
P. aeruginosa; [7]
  fold induction at 50 µM: 0.9
E. cloacae; [8]
  fold induction at 50 µM: 1.5
[2]; [9]
  fold induction at 50 µM: 1

## c1ccc2c(c1)CCCc1cc(NCCN3CCOCC3)nnc1-2 [SR-95639A]
E. faecium; planktonic E. faecium, […]
  AK-based Prestwick Library Screening Results: E. faecium (increase in extracellular AK activity): 0.8
K. pneumoniae; planktonic K. pneumoniae, […]
  AK-based Prestwick Library Screening Results: K. pneumoniae (increase in extracellular AK activity): 0.5
[1]; planktonic S. aureus, […]
  AK-based Prestwick Library Screening Results: S. aureus (increase in extracellular AK activity): 0.4
E. coli; planktonic E. coli, […]
  AK-based Prestwick Library Screening Results: E. coli (increase in extracellular AK activity): 0.5
P. aeruginosa; planktonic P. aeruginosa, […]
  AK-based Prestwick Library Screening Results: P. aeruginosa (increase in extracellular AK activity): 0.4
E. cloacae; planktonic E. cloacae, […]
  AK-based Prestwick Library Screening Results: E. cloacae (increase in extracellular AK activity): 0.4
[2]; planktonic A. baumannii, […]
  AK-based Prestwick Library Screening Results: A. baumannii (increase in extracellular AK activity): 0.5

## CC(C)(C)NCC(O)c1ccc(O)c(CO)c1 (stereo not drawn) [Salbutamol]
E. faecium; 384-well format, cutoff for positive-scoring molecules 3-fold increase, read-out: AK-based Prestwick Library Screening Results, E. faecium (increase in extracellular AK activity)
  fold induction at 50 µM: 1
K. pneumoniae; 384-well format, cutoff for positive-scoring molecules 3-fold increase, read-out: AK-based Prestwick Library Screening Results, K. pneumoniae (increase in extracellular AK activity)
  fold induction at 50 µM: 0.7
[1]; 384-well format, cutoff for positive-scoring molecules 3-fold increase, read-out: AK-based Prestwick Library Screening Results, S. aureus (increase in extracellular AK activity)
  fold induction at 50 µM: 0.8
E. coli; 384-well format, cutoff for positive-scoring molecules 3-fold increase, read-out: AK-based Prestwick Library Screening Results, E. coli (increase in extracellular AK activity)
  fold induction at 50 µM: 0.9
P. aeruginosa; 384-well format, cutoff for positive-scoring molecules 3-fold increase, read-out: AK-based Prestwick Library Screening Results, P. aeruginosa (increase in extracellular AK activity)
  fold induction at 50 µM: 0.8
E. cloacae; 384-well format, cutoff for positive-scoring molecules 3-fold increase, read-out: AK-based Prestwick Library Screening Results, E. cloacae (increase in extracellular AK activity)
  fold induction at 50 µM: 1.4
[2]; 384-well format, cutoff for positive-scoring molecules 3-fold increase, read-out: AK-based Prestwick Library Screening Results, A. baumannii (increase in extracellular AK activity)
  fold induction at 50 µM: 0.9

## OCc1cc(C(O)CNCCCCCCOCCCCc2ccccc2)ccc1O (stereo not drawn) [Salmeterol]
E. faecium; [3]
  fold induction at 50 µM: 1
K. pneumoniae; [4]
  fold induction at 50 µM: 1.1
[1]; [5]
  fold induction at 50 µM: 1.9
E. coli; [6]
  fold induction at 50 µM: 1.4
P. aeruginosa; [7]
  fold induction at 50 µM: 1.2
E. cloacae; [8]
  fold induction at 50 µM: 1.5
[2]; [9]
  fold induction at 50 µM: 1.5

## C[C@@H]1NCCc2cc(O)c(O)cc21 [Salsolinol hydrobromide]
E. faecium; planktonic, cutoff for positive 3-fold increase, read-out: AK-based Prestwick Library Screening Results, E. faecium (fold increase in extracellular AK activity)
  fold induction at 50 µM: 1
K. pneumoniae; planktonic, cutoff for positive 3-fold increase, read-out: AK-based Prestwick Library Screening Results, K. pneumoniae (fold increase in extracellular AK activity)
  fold induction at 50 µM: 1.2
[1]; planktonic, cutoff for positive 3-fold increase, read-out: AK-based Prestwick Library Screening Results, S. aureus (fold increase in extracellular AK activity)
  fold induction at 50 µM: 1.1
E. coli; planktonic, cutoff for positive 3-fold increase, read-out: AK-based Prestwick Library Screening Results, E. coli (fold increase in extracellular AK activity)
  fold induction at 50 µM: 1.2
P. aeruginosa; planktonic, cutoff for positive 3-fold increase, read-out: AK-based Prestwick Library Screening Results, P. aeruginosa (fold increase in extracellular AK activity)
  fold induction at 50 µM: 1.1
E. cloacae; planktonic, cutoff for positive 3-fold increase, read-out: AK-based Prestwick Library Screening Results, E. cloacae (fold increase in extracellular AK activity)
  fold induction at 50 µM: 1.5
[2]; planktonic, cutoff for positive 3-fold increase, read-out: AK-based Prestwick Library Screening Results, A. baumannii (fold increase in extracellular AK activity)
  fold induction at 50 µM: 1.2

## C[n+]1cc2c3c(ccc2c2ccc4cc5c(cc4c21)OCO5)OCO3 [Sanguinarine]
E. faecium; [10]
  fold induction at 50 µM: 0.3
K. pneumoniae; [11]
  fold induction at 50 µM: 0.2
[1]; [12]
  fold induction at 50 µM: 0.1
E. coli; [13]
  fold induction at 50 µM: 0.6
P. aeruginosa; [14]
  fold induction at 50 µM: 0.3
E. cloacae; [15]
  fold induction at 50 µM: 0.9
[2]; [16]
  fold induction at 50 µM: 0.7

## CC(C)(C)NC(=O)[C@@H]1C[C@@H]2CCCC[C@@H]2CN1C[C@@H](O)[C@H](Cc1ccccc1)NC(=O)[C@H](CC(N)=O)NC(=O)c1ccc2ccccc2n1 [Saquinavir mesylate]
E. faecium; [10]
  fold induction at 50 µM: 1.2
K. pneumoniae; [11]
  fold induction at 50 µM: 1.1
[1]; [12]
  fold induction at 50 µM: 0.9
E. coli; [13]
  fold induction at 50 µM: 1.3
P. aeruginosa; [14]
  fold induction at 50 µM: 1
E. cloacae; [15]
  fold induction at 50 µM: 1.8
[2]; [16]
  fold induction at 50 µM: 1.5

## Br.C[N+]1([O-])[C@@H]2CC(OC(=O)[C@H](CO)c3ccccc3)C[C@H]1[C@@H]1O[C@@H]12 (stereo partly drawn) [Scopolamin-N-oxide hydrobromide]
E. faecium; planktonic E. faecium, […]
  AK-based Prestwick Library Screening Results: E. faecium (increase in extracellular AK activity): 1.1
K. pneumoniae; planktonic K. pneumoniae, […]
  AK-based Prestwick Library Screening Results: K. pneumoniae (increase in extracellular AK activity): 1.2
[1]; planktonic S. aureus, […]
  AK-based Prestwick Library Screening Results: S. aureus (increase in extracellular AK activity): 1.4
E. coli; planktonic E. coli, […]
  AK-based Prestwick Library Screening Results: E. coli (increase in extracellular AK activity): 1.2
P. aeruginosa; planktonic P. aeruginosa, […]
  AK-based Prestwick Library Screening Results: P. aeruginosa (increase in extracellular AK activity): 1.3
E. cloacae; planktonic E. cloacae, […]
  AK-based Prestwick Library Screening Results: E. cloacae (increase in extracellular AK activity): 1.5
[2]; planktonic A. baumannii, […]
  AK-based Prestwick Library Screening Results: A. baumannii (increase in extracellular AK activity): 1.4
